≈ marks a conversion by molar mass, not a printed value.
Assays:
Format in all cases: cell-based
Pseudomonas aeruginosa = assay: MIC micro broth dilution assay; details: for MIC: Pseudomonas aeruginosa
Method: (§1) For this study we used a representative panel of multi-drug resistant clinical ESKAPE pathogen isolates (Supplemental Table S6).^42 43 3a, 44 45 Gram-positive organisms were grown in tryptic soy broth media (TSB), whilst Gram-negative organisms were grown in lysogeny Broth (LB), as described by us previously. ^43 MIC and MBC determination assays.
(§2) Broth cultures of ESKAPE strains were grown overnight before being diluted 1 in 1,000 in fresh media. Sterile 96-well plates were loaded with culture and compounds (in DMF) were added at decreasing concentrations to equal a total volume of 200 μl per well. Care was taken to not add more than 2.0% DMF to any well. Plates were then incubated at 37° C., and MICs determined after 24 hours by visual inspection for a lack of turbidity in wells. All assays were performed in triplicate with identical results obtained. For both the scaffold ranking and positional scanning samples, relative broad-spectrum activity was determined via stacked scores: […]

ESKAPE pathogens = assay: MIC micro broth dilution assay, statements and stacked scores over all ESKAPE pathogens; details: letters E,S,K,A,P,E = ESKAPE pathogens, — = none
Method: as §1
as §2, with “The minimum inhibitory concentration (MIC) for the combinatorial libraries, deconvolved 2157 library, and individual compounds were determined as follows. Broth” for “Broth”

Staphylococcus aureus = assay: MIC micro broth dilution assay; details: for MIC: Staphylococcus aureus
Procedure, shortened: (§3)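 Multidrug-resistant clinical ESKAPE isolates were grown overnight (Gram-positives in TSB, Gram-negatives in LB), diluted 1:1,000 and exposed to decreasing compound concentrations in DMF (≤2.0% DMF).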

Enterobacter cloacae = assay: MIC micro broth dilution assay; details: for MIC: Enterobacter cloacae
Procedure, shortened: as §3

Enterococcus faecium = assay: MIC micro broth dilution assay; details: for MIC: Enterococcus faecium
Procedure, shortened: as §3

Acinetobacter baumannii = assay: MIC micro broth dilution assay; details: for MIC: Acinetobacter baumannii
Procedure, shortened: as §3

Klebsiella pneumoniae = assay: MIC micro broth dilution assay; details: for MIC: Klebsiella pneumoniae
Procedure, shortened: as §3

Work on `CCCCCCCN1C(=N)N(CCCC[C@H]2CNC(=N)N2CCc2cccc(C(F)(F)F)c2)C[C@@H]1CCCC` [Compound 1] yielded an MIC (Pseudomonas aeruginosa; P. aeruginosa isolate 1414) of 5 µM (≈ 2.75 µg/mL), an MIC (Pseudomonas aeruginosa; P. aeruginosa isolate 1415) of 5 µM (≈ 2.75 µg/mL) and an MIC (Pseudomonas aeruginosa; P. aeruginosa isolate 1416) of 5 µM (≈ 2.75 µg/mL). It also gave an MIC (Pseudomonas aeruginosa; P. aeruginosa isolate 1417) of 5 µM (≈ 2.75 µg/mL), an MIC (Pseudomonas aeruginosa; P. aeruginosa isolate 1418) of 7 µM (≈ 3.86 µg/mL) and an MIC (Pseudomonas aeruginosa; P. aeruginosa isolate 1419) of 5 µM (≈ 2.75 µg/mL). It also gave an MIC (Pseudomonas aeruginosa; P. aeruginosa isolate 1420) of 5 µM (≈ 2.75 µg/mL), an MIC (Pseudomonas aeruginosa; P. aeruginosa isolate 1421) of 5 µM (≈ 2.75 µg/mL) and an MIC (Pseudomonas aeruginosa; P. aeruginosa isolate 1422) of 5 µM (≈ 2.75 µg/mL). The MIC (Pseudomonas aeruginosa; P. aeruginosa isolate 1423) was 2 µM (≈ 1.1 µg/mL), the MIC (Pseudomonas aeruginosa; purified compound, Table 1) was 1.63 µM (≈ 0.898 µg/mL) and the “concentration inhibiting 90% of isolates” value (Pseudomonas aeruginosa; panel of P. aeruginosa clinical isolates) was 10 µM. For the same compound, the “pathogens against which the compound showed activity at 5 ug/ml” value (ESKAPE pathogens; dose 5 ug/ml) was “ESKAPE”, the “pathogens against which the compound showed activity at 10 ug/ml” value (ESKAPE pathogens; dose 10 ug/ml) was “ESKAPE” and the “pathogens against which the compound showed activity at 25 ug/ml” value (ESKAPE pathogens; dose 25 ug/ml) was “ESKAPE”. The “stacked score activity, 100/MIC, S” value (Staphylococcus aureus; S. aureus) was 50, the MIC (Staphylococcus aureus; S. aureus isolate 542) was 2 µM (≈ 1.1 µg/mL) and the MIC (Staphylococcus aureus; S. aureus isolate 626) was 2 µM (≈ 1.1 µg/mL). The MIC (Staphylococcus aureus; S. aureus isolate 635) was 2 µM (≈ 1.1 µg/mL), the MIC (Staphylococcus aureus; S. aureus isolate 648) was 2 µM (≈ 1.1 µg/mL) and the MIC (Staphylococcus aureus; S. aureus isolate 690) was 2 µM (≈ 1.1 µg/mL). It also gave an MIC (Staphylococcus aureus; S. aureus isolate 693) of 2 µM (≈ 1.1 µg/mL), an MIC (Staphylococcus aureus; S. aureus isolate 715) of 2 µM (≈ 1.1 µg/mL) and an MIC (Staphylococcus aureus; S. aureus isolate 728) of 2 µM (≈ 1.1 µg/mL). For the same compound, the MIC (Staphylococcus aureus; S. aureus isolate 834) was 2 µM (≈ 1.1 µg/mL), the MIC (Staphylococcus aureus; S. aureus isolate 1043) was 2 µM (≈ 1.1 µg/mL) and the MIC (Staphylococcus aureus; S. aureus isolate 1049) was 2 µM (≈ 1.1 µg/mL). The MIC (Staphylococcus aureus; purified compound, Table 1) was 1.63 µM (≈ 0.898 µg/mL), the “stacked score activity, 100/MIC, E” value (Enterobacter cloacae; E. cloacae) was 20 and the MIC (Enterobacter cloacae; E. cloacae isolate 1404) was 2 µM (≈ 1.1 µg/mL). It also gave an MIC (Enterobacter cloacae; E. cloacae isolate 1405) of 5 µM (≈ 2.75 µg/mL), an MIC (Enterobacter cloacae; E. cloacae isolate 1430) of 3 µM (≈ 1.65 µg/mL) and an MIC (Enterobacter cloacae; E. cloacae isolate 1431) of 5 µM (≈ 2.75 µg/mL). For the same compound, the MIC (Enterobacter cloacae; E. cloacae isolate 1445) was 3 µM (≈ 1.65 µg/mL), the MIC (Enterobacter cloacae; E. cloacae isolate 1446) was 7 µM (≈ 3.86 µg/mL) and the MIC (Enterobacter cloacae; E. cloacae isolate 1447) was 5 µM (≈ 2.75 µg/mL). For the same compound, the MIC (Enterobacter cloacae; E. cloacae isolate 1448) was 3 µM (≈ 1.65 µg/mL), the MIC (Enterobacter cloacae; E. cloacae isolate 1454) was 3 µM (≈ 1.65 µg/mL) and the MIC (Enterobacter cloacae; E. cloacae isolate 1455) was 2 µM (≈ 1.1 µg/mL). The MIC (Enterobacter cloacae; purified compound, Table 1) was 1.63 µM (≈ 0.898 µg/mL), the “concentration inhibiting 90% of isolates” value (Enterobacter cloacae; panel of E. cloacae clinical isolates) was 10 µM and the “stacked score activity, 100/MIC, E” value (Enterococcus faecium; E. faecium) was 20. It also gave an MIC (Enterococcus faecium; E. faecium isolate 1406) of 2 µM (≈ 1.1 µg/mL), an MIC (Enterococcus faecium; E. faecium isolate 1407) of 2 µM (≈ 1.1 µg/mL) and an MIC (Enterococcus faecium; E. faecium isolate 1432) of 2 µM (≈ 1.1 µg/mL). For the same compound, the MIC (Enterococcus faecium; E. faecium isolate 1438) was 2 µM (≈ 1.1 µg/mL), the MIC (Enterococcus faecium; E. faecium isolate 1439) was 2 µM (≈ 1.1 µg/mL) and the MIC (Enterococcus faecium; E. faecium isolate 1443) was 2 µM (≈ 1.1 µg/mL). The MIC (Enterococcus faecium; E. faecium isolate 1444) was 2 µM (≈ 1.1 µg/mL), the MIC (Enterococcus faecium; E. faecium isolate 1449) was 2 µM (≈ 1.1 µg/mL) and the MIC (Enterococcus faecium; E. faecium isolate 1450) was 2 µM (≈ 1.1 µg/mL). The MIC (Enterococcus faecium; E. faecium isolate 1451) was 2 µM (≈ 1.1 µg/mL), the MIC (Enterococcus faecium; purified compound, Table 1) was 1.63 µM (≈ 0.898 µg/mL) and the “stacked score activity, 100/MIC, A” value (Acinetobacter baumannii; A. baumannii) was 20. It also gave an MIC (Acinetobacter baumannii; A. baumannii isolate 1403) of 2 µM (≈ 1.1 µg/mL), an MIC (Acinetobacter baumannii; A. baumannii isolate 1643) of 2 µM (≈ 1.1 µg/mL) and an MIC (Acinetobacter baumannii; A. baumannii isolate 1644) of 2 µM (≈ 1.1 µg/mL). It also gave an MIC (Acinetobacter baumannii; A. baumannii isolate 1647) of 2 µM (≈ 1.1 µg/mL), an MIC (Acinetobacter baumannii; A. baumannii isolate 1648) of 2 µM (≈ 1.1 µg/mL) and an MIC (Acinetobacter baumannii; A. baumannii isolate 1649) of 2 µM (≈ 1.1 µg/mL). It also gave an MIC (Acinetobacter baumannii; A. baumannii isolate 1650) of 2 µM (≈ 1.1 µg/mL), an MIC (Acinetobacter baumannii; A. baumannii isolate 1651) of 2 µM (≈ 1.1 µg/mL) and an MIC (Acinetobacter baumannii; A. baumannii isolate 1653) of 2 µM (≈ 1.1 µg/mL). The MIC (Acinetobacter baumannii; A. baumannii isolate 1654) was 2 µM (≈ 1.1 µg/mL), the MIC (Acinetobacter baumannii; purified compound, Table 1) was 1.63 µM (≈ 0.898 µg/mL) and the “stacked score activity, 100/MIC, K” value (Klebsiella pneumoniae; K. pneumoniae) was 33. For the same compound, the MIC (Klebsiella pneumoniae; K. pneumoniae isolate 1408) was 2 µM (≈ 1.1 µg/mL), the MIC (Klebsiella pneumoniae; K. pneumoniae isolate 1409) was 3 µM (≈ 1.65 µg/mL) and the MIC (Klebsiella pneumoniae; K. pneumoniae isolate 1410) was 3 µM (≈ 1.65 µg/mL). The MIC (Klebsiella pneumoniae; K. pneumoniae isolate 1411) was 2 µM (≈ 1.1 µg/mL), the MIC (Klebsiella pneumoniae; K. pneumoniae isolate 1412) was 5 µM (≈ 2.75 µg/mL) and the MIC (Klebsiella pneumoniae; K. pneumoniae isolate 1413) was 3 µM (≈ 1.65 µg/mL). For the same compound, the MIC (Klebsiella pneumoniae; K. pneumoniae isolate 1433) was 2 µM (≈ 1.1 µg/mL), the MIC (Klebsiella pneumoniae; K. pneumoniae isolate 1434) was 5 µM (≈ 2.75 µg/mL) and the MIC (Klebsiella pneumoniae; K. pneumoniae isolate 1440) was 2 µM (≈ 1.1 µg/mL). The MIC (Klebsiella pneumoniae; K. pneumoniae isolate 1441) was 2 µM (≈ 1.1 µg/mL), the MIC (Klebsiella pneumoniae; purified compound, Table 1) was 1.63 µM (≈ 0.898 µg/mL) and the “concentration inhibiting 90% of isolates” value (Klebsiella pneumoniae; panel of K. pneumoniae clinical isolates) was 10 µM.

Reference: patent US20170065564A1, “BIS-CYCLIC GUANIDINE COMPOUND COMPOSITIONS, METHODS OF USE AND TREATMENT THEREOF” (University of South Florida, priority 2014, published 2017)
